{"source": "patent US6440970B1", "about": "“Pharmaceutical compositions and methods for use” (Targacept, Inc., priority 2000, dated 2002)", "key": {"[1]": {"system": "ganglionic-type nicotinic acetylcholine receptors", "test": "Determination of interaction with ganglion receptors", "assay_type": "cell-based", "details": "at a concentration of 100 uM; percentage of maximal activation induced by (S)-(-)-nicotine", "protocol": "Determination of Interaction with Ganglion Receptors\n(§1) The determination of the interaction of the compounds with ganglionic receptors was carried out in accordance with the techniques described in U.S. Pat. No. 5,597,919 to Dull et al. The maximal activation for individual compounds (Emax) was determined as a percentage of the maximal activation induced by (S)-(−)-nicotine. Reported Emax values represent the amount released relative to (S)-(−)-nicotine on a percentage basis."}, "[2]": {"biological_target": "muscle-type nicotinic acetylcholine receptors (Homo sapiens, UniProt P02708+P07510+P11230+Q07001)", "sequence (P02708 whole entry)": "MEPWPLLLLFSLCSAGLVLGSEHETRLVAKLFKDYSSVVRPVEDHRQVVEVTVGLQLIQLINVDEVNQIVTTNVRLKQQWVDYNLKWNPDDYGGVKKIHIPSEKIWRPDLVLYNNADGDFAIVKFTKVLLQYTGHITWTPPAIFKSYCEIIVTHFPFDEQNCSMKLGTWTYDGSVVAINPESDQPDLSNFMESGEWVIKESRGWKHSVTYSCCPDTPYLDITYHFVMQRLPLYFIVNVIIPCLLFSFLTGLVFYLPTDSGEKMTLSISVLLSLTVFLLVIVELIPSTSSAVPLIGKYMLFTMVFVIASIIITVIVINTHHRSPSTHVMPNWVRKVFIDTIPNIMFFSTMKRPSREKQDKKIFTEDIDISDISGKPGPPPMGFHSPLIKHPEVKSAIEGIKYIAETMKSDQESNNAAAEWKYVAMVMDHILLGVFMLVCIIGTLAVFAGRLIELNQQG", "sequence (P11230 24-501)": "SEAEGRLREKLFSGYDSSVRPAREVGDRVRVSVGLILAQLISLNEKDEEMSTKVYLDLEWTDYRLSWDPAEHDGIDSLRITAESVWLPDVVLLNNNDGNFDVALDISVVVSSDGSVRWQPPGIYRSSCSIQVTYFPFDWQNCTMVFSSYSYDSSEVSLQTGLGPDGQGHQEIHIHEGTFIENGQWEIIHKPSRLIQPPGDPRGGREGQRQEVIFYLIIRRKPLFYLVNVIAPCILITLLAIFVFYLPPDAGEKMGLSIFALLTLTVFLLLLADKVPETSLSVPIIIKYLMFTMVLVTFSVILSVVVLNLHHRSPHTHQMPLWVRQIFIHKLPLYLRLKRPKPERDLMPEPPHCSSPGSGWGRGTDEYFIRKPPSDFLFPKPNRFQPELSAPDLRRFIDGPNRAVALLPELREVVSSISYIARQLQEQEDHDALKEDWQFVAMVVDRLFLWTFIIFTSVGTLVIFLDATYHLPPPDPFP", "sequence (P07510 23-517)": "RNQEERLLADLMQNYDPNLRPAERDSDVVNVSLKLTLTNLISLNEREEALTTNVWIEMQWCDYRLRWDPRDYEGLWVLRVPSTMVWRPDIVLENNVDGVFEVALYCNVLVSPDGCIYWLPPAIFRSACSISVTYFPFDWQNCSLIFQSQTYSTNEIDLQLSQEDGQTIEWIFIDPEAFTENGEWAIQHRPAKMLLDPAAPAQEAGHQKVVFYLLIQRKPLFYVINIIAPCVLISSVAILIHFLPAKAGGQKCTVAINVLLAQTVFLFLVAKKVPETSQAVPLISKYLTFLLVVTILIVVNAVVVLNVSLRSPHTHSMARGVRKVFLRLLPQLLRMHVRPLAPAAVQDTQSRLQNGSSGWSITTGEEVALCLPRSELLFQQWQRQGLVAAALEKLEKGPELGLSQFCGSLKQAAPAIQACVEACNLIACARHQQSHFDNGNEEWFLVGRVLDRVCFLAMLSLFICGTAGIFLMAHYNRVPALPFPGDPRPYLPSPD", "sequence (Q07001 22-517)": "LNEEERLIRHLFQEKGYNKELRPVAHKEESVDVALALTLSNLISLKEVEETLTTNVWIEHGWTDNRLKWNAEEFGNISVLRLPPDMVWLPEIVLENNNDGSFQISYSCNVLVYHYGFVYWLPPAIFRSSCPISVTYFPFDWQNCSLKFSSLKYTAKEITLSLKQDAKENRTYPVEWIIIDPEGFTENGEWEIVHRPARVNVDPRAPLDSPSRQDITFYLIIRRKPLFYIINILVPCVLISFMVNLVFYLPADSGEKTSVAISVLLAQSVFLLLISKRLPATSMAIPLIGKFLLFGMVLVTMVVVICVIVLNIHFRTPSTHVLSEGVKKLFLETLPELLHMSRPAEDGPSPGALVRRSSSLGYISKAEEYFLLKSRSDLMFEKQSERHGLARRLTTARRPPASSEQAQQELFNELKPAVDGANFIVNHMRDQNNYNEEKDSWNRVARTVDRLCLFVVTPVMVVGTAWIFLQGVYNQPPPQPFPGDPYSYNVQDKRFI", "test": "Determination of interaction with muscle receptors", "assay_type": "cell-based", "details": "at a concentration of 100 uM; percentage of maximal activation induced by (S)-(-)-nicotine", "protocol": "Determination of Interaction with Muscle Receptors\nas §1, with “muscle” for “ganglionic”"}, "CNS nicotinic receptors": {"biological_target": "CNS nicotinic receptors", "test": "Determination of binding to relevant receptor sites", "details": "inhibition constant calculated from IC50 by the method of Cheng et al.", "protocol": "Determination of Binding to Relevant Receptor Sites\nBinding of the compounds to relevant receptor sites was determined in accordance with the techniques described in U.S. Pat. No. 5,597,919 to Dull et al. Inhibition constants (Ki values), reported in nM, were calculated from the IC50 values using the method of Cheng et al., Biochem, Pharmacol. 22:3099 (1973)."}}}
{"compound": "(1S,4S)-(5-pyrimidinyl)-2,5-diazabicyclo[2.2.1]heptane hemigalactarate [Sample No. 3]", "values": [{"measurement": "Emax at ganglionic-type receptors", "setting": "[1]", "result": 11, "unit": "%"}, {"measurement": "Emax at muscle-type receptors", "setting": "[2]", "result": 100, "unit": "%"}]}
{"compound": "(1S,4S)-(6-chloro-3-pyridazinyl)-2,5-diazabicyclo[2.2.1]heptane hemigalactarate [Sample No. 4]", "values": [{"measurement": "Emax at ganglionic-type receptors", "setting": "[1]", "result": 28, "unit": "%"}, {"measurement": "Emax at muscle-type receptors", "setting": "[2]", "result": 0, "unit": "%"}]}
{"compound": "(1S,4S)-(5-(4-methoxyphenoxy)-3-pyridyl)-2,5-diazabicyclo[2.2.1]heptane hemigalactarate [Sample No. 2]", "values": [{"measurement": "Emax at ganglionic-type receptors", "setting": "[1]", "result": 11, "unit": "%"}, {"measurement": "Emax at muscle-type receptors", "setting": "[2]", "result": 12, "unit": "%"}]}
{"compound": "Brc1cncc(N2C[C@@H]3C[C@H]2CN3)c1", "note": "[Sample No. 1, (1S,4S)-(5-bromo-3-pyridyl)-2,5-diazabicyclo[2.2.1]heptane]", "values": [{"measurement": "Emax at ganglionic-type receptors", "setting": "[1]", "result": 5, "unit": "%"}, {"measurement": "Emax at muscle-type receptors", "setting": "[2]", "result": 0, "unit": "%"}, {"measurement": "Ki", "setting": "CNS nicotinic receptors", "result": 56, "unit": "nM"}]}
